Laboratory results published in ChEMBL document CHEMBL4373661, “Set-up and screening of a fragment library targeting the 14-3-3 protein interface” (Medchemcomm, 2019).
Activity calls are given as the source filed them. No cut-off for these calls is given here.

Assays:
Homo sapiens [1] = organism: Homo sapiens; assay: Binding affinity to human His6-tagged 14-3-3 protein sigma C17 deletion mutant expressed in Escherichia coli BL21 (DE3) at 500 uM by WaterLOGSY NMR analysis
Homo sapiens [2] = organism: Homo sapiens; assay: Binding affinity to 15N2H labelled human 14-3-3 protein sigma C17 deletion mutant at dimer interface assessed as chemical shift perturbations in resonances at 2000 uM by 1H-15N TROSY-HSQC 2D NMR analysis
Homo sapiens [3] = organism: Homo sapiens; assay: Binding affinity to 15N2H labelled human 14-3-3 protein sigma C17 deletion mutant at top of helices alphaH and alphaI assessed as chemical shift perturbations in resonances at 2000 uM by 1H-15N TROSY-HSQC 2D NMR analysis

Row | Activity (Homo sapiens [1]) | Activity (Homo sapiens [2]) | Activity (Homo sapiens [3]) | SMILES
1 | Active | Active | – | NC(=O)c1cc(Cl)cc(Cl)c1O
2 | Active | – | Active | Cc1ccc(B(O)O)cc1Cl
3 | Active | – | Active | CC12CC3(C)CC(C)(C1)CC(C(=O)O)(C2)C3
